Laboratory results from PMC8428568, “Discovery of re-purposed drugs that slow SARS-CoV-2 replication in human cells” (PLoS Pathogens, 2021).
Structures can show the parent of a compound that is named as a salt. Where two headings read alike, the source gives them in different places.

What was measured:
[1] = system: SARS-CoV-2-ΔOrf7a-NLuc virus; experiment: microbe, parasite or virus in culture; type: cell-based; conditions: for activity at 10 µM: Severe acute respiratory syndrome coronavirus 2, Vero, 72 h, read-out: Mean relative luminescence (n=4)
[2] = system: SARS-CoV-2-ΔOrf7a-NLuc virus; experiment: microbe, parasite or virus in culture; type: cell-based
recombinant NLuc = type: biochemical
[3] = […], 1 = untreated, 0 = total inhibition
[4] = Vero screen, […], relative luminescence
[5] = HUH7 screen, […], relative luminescence
[6] = recombinant NLuc activity relative to DMSO
[7] = recombinant NLuc, first read column
[8] = recombinant NLuc, fourth read column
[9] = recombinant NLuc, third read column
[10] = Vero cells, 10 μM, 1 = DMSO-treated infected cells

CCOC(=O)C1=C(C)NC(C)=C(C(=O)OC)C1c1cccc([N+](=O)[O-])c1 (stereo not shown) [Nitrendipine]
% activity in Vero 100PFU screen [1]: 8.56%
activity at 10 µM [1, 3]: 7.21%
Mean relative luminescence (n=4) [1, 4]: 0.07211
Mean relative luminescence (n=4) [2, 5]: 0.0007292
Relative Recombinant NLUC (recombinant NLuc; [6]): 0.06915
Reads Counts per second (read 1) (recombinant NLuc; [7]): 26271 Counts per second
Reads Counts per second (read 4) (recombinant NLuc; [8]): 26141 Counts per second
Reads Counts per second (read 3) (recombinant NLuc; [9]): 26096 Counts per second
PrestoBlue relative viability (Vero cells; [10]): 0.8649
PrestoBlue relative viability (Vero cells; Vero screen): 0.8649
PrestoBlue relative viability (HUH7 cells; HUH7 screen): 0.6545

CNCC[C@H](Oc1cccc2ccccc12)c1cccs1 [Duloxetine HCl]
% activity in Vero 100PFU screen [1]: 12%
activity at 10 µM [1]: 9.8%
Mean relative luminescence (n=4) [2]: 0.02845
Reads Counts per second (read 1) (recombinant NLuc): 297459 Counts per second
Reads Counts per second (read 3) (recombinant NLuc): 293652 Counts per second
Reads Counts per second (read 4) (recombinant NLuc): 301826 Counts per second
Relative Recombinant NLUC (recombinant NLuc): 0.7894
PrestoBlue relative viability (Vero cells; African green monkey): 0.9914
PrestoBlue relative viability (HUH7 cells; human): 0.5048

CC(C)n1c(/C=C/C(O)CC(O)CC(=O)O)c(-c2ccc(F)cc2)c2ccccc21 (stereo not shown) [Fluvastatin Sodium]
% activity in Vero 100PFU screen [1]: 6%
activity at 10 µM [1, 3]: 5.01%
Mean relative luminescence (n=4) [1, 4]: 0.05005
Mean relative luminescence (n=4) [2, 5]: 0.05448
Relative Recombinant NLUC (recombinant NLuc; [6]): 0.8994
Reads Counts per second (read 1) (recombinant NLuc; [7]): 344916 Counts per second
Reads Counts per second (read 4) (recombinant NLuc; [8]): 335899 Counts per second
Reads Counts per second (read 3) (recombinant NLuc; [9]): 339204 Counts per second
PrestoBlue relative viability (Vero cells; [10]): 0.5553
PrestoBlue relative viability (Vero cells; Vero screen): 0.5553
PrestoBlue relative viability (HUH7 cells; HUH7 screen): 1.3017

COC(=O)C1=C(C)NC(C)=C(C(=O)OC(C)C)C1c1cccc2nonc12 (stereo not shown) [Isradipine (Dynacirc), Isradipine]
% activity in Vero 100PFU screen [1]: 6%
activity at 10 µM [1, 3]: 3.92%
Mean relative luminescence (n=4) [1, 4]: 0.03922
Mean relative luminescence (n=4) [2, 5]: 0.001355
Relative Recombinant NLUC (recombinant NLuc; [6]): 0.04959
Reads Counts per second (read 1) (recombinant NLuc; [7]): 19176 Counts per second
Reads Counts per second (read 4) (recombinant NLuc; [8]): 18431 Counts per second
Reads Counts per second (read 3) (recombinant NLuc; [9]): 18561 Counts per second
PrestoBlue relative viability (Vero cells; [10]): 0.6155
PrestoBlue relative viability (Vero cells; Vero screen): 0.6155
PrestoBlue relative viability (HUH7 cells; HUH7 screen): 0.6762

Clc1ccc(C(Cn2ccnc2)OCc2ccsc2Cl)c(Cl)c1 (stereo not shown) [Tioconazole]
% activity in Vero 100PFU screen [1]: 10%
activity at 10 µM [1]: 7.16%
Mean relative luminescence (n=4) [2]: 0.1247
Reads Counts per second (read 1) (recombinant NLuc): 349867 Counts per second
Reads Counts per second (read 3) (recombinant NLuc): 345556 Counts per second
Reads Counts per second (read 4) (recombinant NLuc): 349383 Counts per second
Relative Recombinant NLUC (recombinant NLuc): 0.9221
PrestoBlue relative viability (Vero cells; African green monkey): 1.172
PrestoBlue relative viability (HUH7 cells; human): 1.129

COCCOC(=O)C1=C(C)NC(C)=C(C(=O)OC/C=C/c2ccccc2)C1c1cccc([N+](=O)[O-])c1 (stereo not shown) [Cilnidipine]
% activity in Vero 100PFU screen [1]: 0.696%
activity at 10 µM [1, 3]: 0.039%
Mean relative luminescence (n=4) [1, 4]: 0.0003902
Mean relative luminescence (n=4) [2, 5]: 0.00182
Relative Recombinant NLUC (recombinant NLuc; [6]): 0.07521
Reads Counts per second (read 1) (recombinant NLuc; [7]): 28828 Counts per second
Reads Counts per second (read 4) (recombinant NLuc; [8]): 27971 Counts per second
Reads Counts per second (read 3) (recombinant NLuc; [9]): 28106 Counts per second
PrestoBlue relative viability (Vero cells; [10]): 0.8017
PrestoBlue relative viability (Vero cells; Vero screen): 0.8017
PrestoBlue relative viability (HUH7 cells; HUH7 screen): 0.797

CCOC(=O)C1=C(C)NC(C)=C(C(=O)OCC)C1c1ccccc1/C=C/C(=O)OC(C)(C)C [Lacidipine]
% activity in Vero 100PFU screen [1]: 1.49%
activity at 10 µM [1, 3]: 0.0439%
Mean relative luminescence (n=4) [1, 4]: 0.0004392
Mean relative luminescence (n=4) [2, 5]: 0.02662
Relative Recombinant NLUC (recombinant NLuc; [6]): 0.1601
Reads Counts per second (read 1) (recombinant NLuc; [7]): 61246 Counts per second
Reads Counts per second (read 4) (recombinant NLuc; [8]): 59492 Counts per second
Reads Counts per second (read 3) (recombinant NLuc; [9]): 60310 Counts per second
PrestoBlue relative viability (Vero cells; [10]): 0.86
PrestoBlue relative viability (Vero cells; Vero screen): 0.86
PrestoBlue relative viability (HUH7 cells; HUH7 screen): 0.9247

CCc1cnn2c(NCc3ccc[n+]([O-])c3)cc(N3CCCC[C@H]3CCO)nc12 [Dinaciclib (SCH727965), Dinaciclib]
% activity in Vero 100PFU screen [1]: 5%
activity at 10 µM [1, 3]: 3.29%
Mean relative luminescence (n=4) [1, 4]: 0.03292
Mean relative luminescence (n=4) [2, 5]: 0.06294
Relative Recombinant NLUC (recombinant NLuc; [6]): 0.9134
Reads Counts per second (read 1) (recombinant NLuc; [7]): 345056 Counts per second
Reads Counts per second (read 4) (recombinant NLuc; [8]): 346073 Counts per second
Reads Counts per second (read 3) (recombinant NLuc; [9]): 342151 Counts per second
PrestoBlue relative viability (Vero cells; [10]): 0.664
PrestoBlue relative viability (Vero cells; Vero screen): 0.664
PrestoBlue relative viability (HUH7 cells; HUH7 screen): 0.5934

COC(=O)C1=C(C)NC(C)=C(C(=O)O[C@@H]2CCCN(Cc3ccccc3)C2)[C@@H]1c1cccc([N+](=O)[O-])c1.Cl (racemic) [Benidipine HCl]
% activity in Vero 100PFU screen [1]: 1.81%
Mean relative luminescence (n=4) [1, 4]: 0.003673
Mean relative luminescence (n=4) [1, 3]: 0.003673
Mean relative luminescence (n=4) [2, 5]: 0.003821
Relative Recombinant NLUC (recombinant NLuc; [6]): 0.1313
Reads Counts per second (read 1) (recombinant NLuc; [7]): 50508 Counts per second
Reads Counts per second (read 4) (recombinant NLuc; [8]): 49177 Counts per second
Reads Counts per second (read 2) (recombinant NLuc; recombinant NLuc): 49563 Counts per second
Reads Counts per second (read 3) (recombinant NLuc; [9]): 49185 Counts per second
PrestoBlue relative viability (Vero cells; [10]): 0.8086
PrestoBlue relative viability (Vero cells; Vero screen): 0.8086
PrestoBlue relative viability (HUH7 cells; HUH7 screen): 0.6609

CCCCc1oc2ccccc2c1C(=O)c1cc(I)c(OCCN(CC)CC)c(I)c1 [Amiodarone HCl]
activity at 10 µM [1, 3]: 3.18%
Mean relative luminescence (n=4) [1, 4]: 0.03182
Mean relative luminescence (n=4) [2, 5]: 0.03404
Relative Recombinant NLUC (recombinant NLuc; [6]): 0.9671
Reads Counts per second (read 1) (recombinant NLuc; [7]): 364410 Counts per second
Reads Counts per second (read 4) (recombinant NLuc; [8]): 366409 Counts per second
Reads Counts per second (read 2) (recombinant NLuc; recombinant NLuc): 365102 Counts per second
Reads Counts per second (read 3) (recombinant NLuc; [9]): 365644 Counts per second
PrestoBlue relative viability (Vero cells; [10]): 0.8378
PrestoBlue relative viability (Vero cells; Vero screen): 0.8378
PrestoBlue relative viability (HUH7 cells; HUH7 screen): 0.9633

CN(C)CC/C=C1/c2ccccc2Sc2ccc(Cl)cc21.Cl [Chlorprothixene (hydrochloride)]
% activity in Vero 100PFU screen [1]: 4.28%
Mean relative luminescence (n=4) [1, 4]: 0.0137
Mean relative luminescence (n=4) [1, 3]: 0.0137
Mean relative luminescence (n=4) [2, 5]: 0.03176
Relative Recombinant NLUC (recombinant NLuc; [6]): 0.9574
Reads Counts per second (read 1) (recombinant NLuc; [7]): 359664 Counts per second
Reads Counts per second (read 4) (recombinant NLuc; [8]): 361186 Counts per second
Reads Counts per second (read 3) (recombinant NLuc; [9]): 361391 Counts per second
PrestoBlue relative viability (Vero cells; [10]): 0.8299
PrestoBlue relative viability (Vero cells; Vero screen): 0.8299
PrestoBlue relative viability (HUH7 cells; HUH7 screen): 0.7623

COc1nc2ccc(Br)cc2cc1[C@@H](c1ccccc1)[C@@](O)(CCN(C)C)c1cccc2ccccc12.O=C(O)/C=C/C(=O)O [Bedaquiline fumarate]
% activity in Vero 100PFU screen [1]: 3.58%
Mean relative luminescence (n=4) [1, 4]: 0.01053
Mean relative luminescence (n=4) [1, 3]: 0.01053
Mean relative luminescence (n=4) [2, 5]: 0.1084
Relative Recombinant NLUC (recombinant NLuc; [6]): 0.9227
Reads Counts per second (read 1) (recombinant NLuc; [7]): 351974 Counts per second
Reads Counts per second (read 4) (recombinant NLuc; [8]): 338630 Counts per second
Reads Counts per second (read 2) (recombinant NLuc; recombinant NLuc): 352561 Counts per second
Reads Counts per second (read 3) (recombinant NLuc; [9]): 351293 Counts per second
PrestoBlue relative viability (Vero cells; [10]): 1.113
PrestoBlue relative viability (Vero cells; Vero screen): 1.113
PrestoBlue relative viability (HUH7 cells; HUH7 screen): 0.5224

OCCOc1ccc(/C(=C(/CCCl)c2ccccc2)c2ccccc2)cc1 [Ospemifene]
% activity in Vero 100PFU screen [1]: 4%
activity at 10 µM [1]: 1.57%
Mean relative luminescence (n=4) [2]: 0.1449
Reads Counts per second (read 1) (recombinant NLuc): 356755 Counts per second
Reads Counts per second (read 3) (recombinant NLuc): 358779 Counts per second
Reads Counts per second (read 4) (recombinant NLuc): 352991 Counts per second
Relative Recombinant NLUC (recombinant NLuc): 0.9407
PrestoBlue relative viability (Vero cells; African green monkey): 0.6863
PrestoBlue relative viability (HUH7 cells; human): 1.203
